Key:
[1] = tested on: patients with major depressive disorder with psychotic features (PMD); assay: Phase III trials of CORLUX plus antidepressant vs. placebo: responders on BPRS Positive Symptom Subscale; format: in vivo, human
Text: This example provides a randomized, double-blind, placebo-controlled, parallel group study of the safety and efficacy of three dose levels of CORLUXTM (Mifepristone) plus an antidepressant vs. placebo plus an antidepressant in the treatment of psychotic symptoms in patients with major depressive disorder with psychotic features (PMD). The study was a Phase III trial performed using several investigators at several different sites. […] Patients eligible for randomization were male or nonpregnant female outpatients, and inpatients, if clinically required, with a diagnosis of Major Depressive Disorder with Psychotic Features (DSM-IV 296.24 or 296.34), and a BPRS Positive Symptom subscale score of at least 12, a BPRS total score of at least 38, and a HAMD-24 score of at least 20. CORLUX was used as the test drug at 300 (1×300 mg tablet), 600 (2×300 mg tablet), and 1200 mg (4×300 mg tablet) once a day by mouth for the initial 7 days. […] The reference drug was a placebo (1, 2, or 4 tablets matching CORLUX 300 mg tablets) once a day by mouth for the initial 7 days. […] An antidepressant selected from a prescribed list was started simultaneously with the study drug, and continued to the end of the trial. BPRS and HAM-D assessments were performed at Screen and on Days 0, 7, 14, 28, 42, and 56, and at early termination when it occurred. Safety visits occurred at Days 21 and 35. The patients who are seen as outpatients made daily visits to the clinic setting to receive study medications for the first 7 days. If clinically necessary, a patient was treated as an inpatient. In addition to the selected antidepressant, continuing benzodiazepines was allowed up to specified dose levels, but antipsychotics, mood stabilizers and additional antidepressants were not allowed during the entire study. If the patient was at imminent risk to him/herself and/or others and therefore could not be adequately treated within the study (e.g., required ECT, new or re-hospitalization for PMD, antipsychotics or mood stabilizers, or a second antidepressant), the patient underwent an early termination visit on the day that rescue therapy was started and completed final efficacy evaluations. If early termination occurred prior to day 35, the patient returned for a safety follow up visit at day 35. […] The secondary endpoints were: (1) the proportion of responders at days 7 and 28; and (2) the mean change from baseline to day 56 in the HAM-D-24 total score. […] This example provides an international, double-blind, placebo-controlled study of the efficacy and safety of CORLUXTM (Mifepristone) vs. placebo in the treatment of psychotic symptoms in patients with Psychotic Major Depression (PMD). The study was a Phase III trial performed using several investigators at several different international sites. […] The number of patients was 220 evaluable subjects. […] CORLUX was administered in a 600 mg dose once a day by mouth for the initial 7 days (administered as two 300 mg tablets). Reference drug, dose, dosage regimen, route of administration: Matching placebo was administered once a day by mouth for the initial 7 days. […] After the 7-day dosing period, patients were evaluated at Days 14, 21, 28, 35, 42 and 56. An antidepressant was administered simultaneously with study drug, and continued to the end of the trial (Day 56). BPRS and HAMD-24 assessments were performed at Screen and on Days 0, 7, 14, 28, 42 and 56, or at early termination. A safety visit occurred on Days 21 and 35, and at study termination on Day 56. Subjects treated on an outpatient basis made daily visits to the clinic to receive study medication for the first 7 days. Subjects were treated on an inpatient basis for as long as deemed clinically necessary by the investigator. In addition to the selected antidepressant, concomitant benzodiazepine treatment was allowed up to specified dose levels. Antipsychotics, mood stabilizers and a second antidepressant were prohibited during the entire study. […]

[2] = Mifepristone blood serum/plasma level after the same dose in different patients; format: in vivo, human; conditions: same dose of mifepristone
Experimental: In some embodiments, the assay can be performed as follows. Blood is collected from a patient in a vacutainer containing sodium heparin. The blood is centrifuged and the resulting plasma frozen at an appropriate temperature until assay. In some embodiments, the temperature is about −70° C. In other embodiments, other blood components can be collected and stored. Prior to analysis, the plasma is thawed and a fraction of the plasma is mixed with an internal standard in a solvent such as acetonitrile, to obtain a fixed concentration of the standard. In some embodiments, the internal standard can be mifepristone-d4. The concentration of the internal standard is selected in order to be greater than the expected concentration of mifepristone in the plasma. […]
The sample can then be analyzed by reverse-phase high pressure liquid chromatography (HPLC). […]
The reverse-phase HPLC column can be a phenyl column maintained at 50° C. […] Following elution, the mobile phase can be nebulized using heated nitrogen in a Z-spray source/interface and the ionized compounds detected using a tandem quadrupole mass spectrometer. Mifepristone (molecular weight of 430 g/mol) can be detected at m/z 372.30. The internal standard mifepristone-d4 can be detected at m/z 376.30. The ratio of the mifepristone peak height to the peak height for the internal standard can then be calculated. […]

[3] = species and route not given; cited from earlier work

CC#C[C@]1(O)CC[C@H]2[C@@H]3CCC4=CC(=O)CCC4=C3[C@@H](c3ccc(N(C)C)cc3)C[C@@]21C [Corlux, 17-beta-hydroxy-11-beta-(4-dimethyl-aminophenyl)-17-alpha-(1-propynyl)-estra-4,9-dien-3-one]
proportion of patients with at least a 50% reduction from baseline in BPRS PSS scores at days 7 and 56 ([1]; 1200 mg group (OC), all patients receiving the 1200 mg dose, FIG. 4): 47%
proportion of patients with at least a 50% reduction from baseline in BPRS PSS scores at days 7 and 56 ([1]; 1200 mg group (OC), plasma levels <1357 ng/mL, FIG. 5): 31%
proportion of patients with at least a 50% reduction from baseline in BPRS PSS scores at days 7 and 56 ([1]; 1200 mg group (OC), plasma levels <1661 ng/mL, FIG. 6): 39%
proportion of patients with at least a 50% reduction from baseline in BPRS PSS scores at days 7 and 56 ([1]; 1200 mg group (OC), plasma levels >1357 ng/mL, FIG. 5): 54%
proportion of patients with at least a 50% reduction from baseline in BPRS PSS scores at days 7 and 56 ([1]; 1200 mg group (OC), plasma levels >1661 ng/mL, FIG. 6): 58%
proportion of patients with at least a 50% reduction from baseline in BPRS PSS scores at days 7 and 56 ([1]; all studies (OC), all patients receiving Corlux, FIG. 1): 35%
proportion of patients with at least a 50% reduction from baseline in BPRS PSS scores at days 7 and 56 ([1]; all studies (OC), patients with plasma levels <1357 ng/mL, FIG. 2): 27%
proportion of patients with at least a 50% reduction from baseline in BPRS PSS scores at days 7 and 56 ([1]; all studies (OC), patients with plasma levels <1661 ng/mL, FIG. 3): 29%
proportion of patients with at least a 50% reduction from baseline in BPRS PSS scores at days 7 and 56 ([1]; all studies (OC), patients with plasma levels >1357 ng/mL, FIG. 2): 40%
proportion of patients with at least a 50% reduction from baseline in BPRS PSS scores at days 7 and 56 ([1]; all studies (OC), patients with plasma levels >1661 ng/mL, FIG. 3): 44%
difference in blood serum levels from one patient to another [2]: ≤ 800% and up to 800%
LD50 dose [3]: about 1000 mg/kg
